Data from ChEMBL document CHEMBL4043121, “5-Bromoindirubin 3'-(O-oxiran-2-ylmethyl)oxime: A long-acting anticancer agent and a suicide inhibitor for epoxide hydrolase” (Bioorg Med Chem, 2017).
The source made the active and inactive calls. The rule behind the calls is not given here.

Legend:
[1] = system: HepG2; experiment: Cytotoxicity against human HepG2 cells assessed as cell viability at 3 uM up to 72 hrs by alamar blue assay; format: functional, cell-based
[2] = system: HepG2; experiment: Cytotoxicity against human HepG2 cells assessed as cell growth inhibition after 24 hrs by alamar blue assay; format: functional, cell-based; details: HepG2, 24 h
[3] = Substrate activity at epoxide hydrolase in human HepG2 cell lysate assessed as 5-bromoindirubin 3'-(O-2,3-dihydroxypropyl)oxime formation at >10 uM after 5 mins by HPLC analysis; format: ADME
[4] = species on record: Homo sapiens; experiment: Inhibition of epoxide hydrolase in human HepG2 cell lysate up to 25 uM measured after 5 to 10 mins by Kitz-Wilson method
[5] = system: HepG2; experiment: Retention time of the compound in human HepG2 cell lysate by HPLC analysis; format: ADME, cell-based
[6] = Drug metabolism in human HepG2 cell lysate assessed as epoxide hydrolase-mediated 5-bromoindirubin 3'-(O-2,3-dihydroxypropyl)oxime formation after 30 mins by UPLC/MS analysis; format: ADME; details: 0.5 h
[7] = system: HepG2; experiment: Cytotoxicity against human HepG2 cells assessed as cell viability at 3 uM after 72 hrs by alamar blue assay relative to control; format: functional; details: HepG2, 72 h, read-out: Activity
[8] = species on record: Homo sapiens; experiment: Inhibition of epoxide hydrolase in human HepG2 cell lysate up to 25 uM by Kitz-Wilson method; details: TDE = time-dependent effect
[9] = Substrate activity at epoxide hydrolase in human HepG2 cell lysate assessed as 5-bromoindirubin 3'-(O-2,3-dihydroxypropyl)oxime formation at 2.5 to 6.25 uM after 5 mins by HPLC analysis; format: ADME
[10] = Drug metabolism in human HepG2 cell lysate assessed as epoxide hydrolase-mediated 5-bromoindirubin 3'-(O-2,3-dihydroxypropyl)oxime level after 20 mins by HPLC analysis; format: ADME
[11] = species on record: Homo sapiens; experiment: Effect on epoxide hydrolase activity in human HepG2 cell lysate measured up to 25 uM
[12] = system: HepG2; experiment: Cytotoxicity against human HepG2 cells assessed as cell viability at 1 uM after 72 hrs by alamar blue assay relative to control; format: functional; details: HepG2, 72 h, read-out: Activity
[13] = Drug recovery in human HepG2 cell lysate after 10 to 30 mins by HPLC analysis; format: ADME, cell-based
[14] = Drug recovery in human HepG2 cell lysate measured immediately after compound addition by HPLC analysis; format: ADME, cell-based; details: read-out: Drug recovery
[15] = Drug recovery in human HepG2 cell lysate at 5 mins by HPLC analysis; format: ADME, cell-based; details: read-out: Drug recovery
[16] = Drug metabolism in human HepG2 cell lysate assessed as epoxide hydrolase-mediated oxirane hydrolysis at 20 uM measured up to 30 mins by HPLC analysis; format: ADME; details: 0.5 h
[17] = system: epoxide hydrolase; experiment: Substrate activity at epoxide hydrolase in human HepG2 cell lysate after 5 mins by Lineweaver-Burk plot analysis; format: ADME
[18] = Drug metabolism in human HepG2 cell lysate assessed as epoxide hydrolase-mediated 5-bromoindirubin 3'-(O-2,3-dihydroxypropyl)oxime formation after 30 mins by HPLC analysis; format: ADME; details: 0.5 h
[19] = system: HepG2; experiment: Cytotoxicity against human HepG2 cells assessed as cell viability at 3 uM after 24 hrs by alamar blue assay relative to control; format: functional; details: HepG2, 24 h, read-out: Activity
[20] = Drug metabolism in human HepG2 cell lysate assessed as epoxide hydrolase-mediated 5-bromoindirubin 3'-(O-2,3-dihydroxypropyl)oxime level by HPLC analysis; format: ADME; details: TDE = time-dependent effect
[21] = system: HepG2; experiment: Cytotoxicity against human HepG2 cells assessed as cell viability at 1 uM after 24 hrs by alamar blue assay relative to control; format: functional; details: HepG2, 24 h, read-out: Activity
[22] = Drug recovery in human HepG2 cell lysate by HPLC analysis; format: ADME, cell-based; details: TDE = time-dependent effect
[23] = Drug metabolism in human HepG2 cell lysate assessed as epoxide hydrolase-mediated oxirane hydrolysis at 9 uM measured up to 30 mins by HPLC analysis; format: ADME; details: 0.5 h
[24] = Drug metabolism in human HepG2 cell lysate assessed as epoxide hydrolase-mediated 5-bromoindirubin 3'-(O-2,3-dihydroxypropyl)oxime level after 5 mins by HPLC analysis; format: ADME
[25] = Drug metabolism in human HepG2 cell lysate assessed as epoxide hydrolase-mediated 1H,1'H-[2,3']Biindolylidene-3,2'-dione 3-[O-(2,3-dihydroxy-propyl)-oxime] level after 5 mins by HPLC analysis; format: ADME
[26] = Drug recovery in human HepG2 cell lysate measured up to 30 mins by HPLC analysis; format: ADME, cell-based; details: read-out: Drug recovery

Compound	IC50 [2] [µM]	also measured
O=C1Nc2c(Br)cccc2/C1=C1/Nc2ccc(Br)cc2/C1=N\OCC1CO1 (stereo unspecified)	10	Activity [1]: inactive
O=C1Nc2c(Br)cccc2/C1=C1/Nc2ccccc2/C1=N\O	4.8	
COc1ccc2c(c1)/C(=C1/Nc3ccccc3/C1=N\OCC1CO1)C(=O)N2 (stereo unspecified)	1.6	
O=C1Nc2c(Br)cccc2/C1=C1/Nc2cc(Br)ccc2C1=O	> 100	
O=C1Nc2ccc(Br)cc2/C1=C1/Nc2ccccc2/C1=N\O [INDIRUBIN 2]	6.9	
O=C1Nc2cc(Br)ccc2/C1=C1/Nc2ccc(Br)cc2C1=O	> 100	
O=C1Nc2ccc(Cl)cc2/C1=C1/Nc2ccccc2C1=O	> 100	
O=C1Nc2ccccc2/C1=C1/Nc2ccc(Br)cc2/C1=N\OCC1CO1 (stereo unspecified)	3.3	
O=C1Nc2ccccc2/C1=C1/Nc2cc(Br)ccc2C1=O	> 100	
O=C1Nc2ccc(Cl)cc2/C1=C1/Nc2ccccc2/C1=N\O	13	
O=C1Nc2ccc(Br)cc2/C1=C1/Nc2cc(Br)ccc2/C1=N\O	> 100	
O=C1Nc2ccccc2/C1=C1/Nc2cc(Br)ccc2/C1=N\O	14	
O=C1Nc2cc(Br)ccc2/C1=C1/Nc2ccc(Br)cc2/C1=N\OCC1CO1 (stereo unspecified)	> 100	
O=C1Nc2ccc(Br)cc2/C1=C1/Nc2cc(Br)ccc2/C1=N\OCC1CO1 (stereo unspecified)	> 100	
O=C1Nc2cc(Br)ccc2/C1=C1/Nc2ccccc2/C1=N\OCC1CO1 (stereo unspecified)	> 100	
O=C1Nc2cc(Br)ccc2/C1=C1/Nc2ccc(Br)cc2/C1=N\O	3.7	
O=C1Nc2ccc(Br)cc2/C1=C1/Nc2ccccc2/C1=N\OCC(O)CO (stereo unspecified)	9.8	Activity [3]: Not Active; inhibition [4]: inactive; Retention_time [5]: 3.5 min
O=C1Nc2ccc(Br)cc2/C1=C1/Nc2ccccc2/C1=N\OCC1CO1 (stereo unspecified)	0.62	Drug metabolism [6]: Metabolite_Detected; viability at 3 µM [7]: 4.8%; inhibition [8]: Tde; Activity [9]: Active; Drug metabolism [10]: <= 4 nmol; Activity [11]: inactive; viability at 1 µM [12]: 10%; Drug recovery [13]: 80%; remaining at 0 min [14]: 95%; Retention_time [5]: 5.9 min; remaining at 5 min [15]: 88%; Drug metabolism [16]: 4 nmol; Km at 5 min [17]: 3.34 µM; Drug metabolism [18]: Metabolite_Detected; viability at 3 µM [19]: 30%; Drug metabolism [20]: Tde; viability at 1 µM [21]: 39%; Drug recovery [22]: Tde
O=C1Nc2cc(Br)c(Br)cc2/C1=C1/Nc2ccccc2C1=O	> 100	
O=C1Nc2ccc(Br)cc2/C1=C1/Nc2ccccc2C1=O	> 100	

Compound	IC50 [2] [µM]	also measured
O=C1Nc2ccccc2/C1=C1/Nc2cc(Br)ccc2/C1=N\OCC1CO1 (stereo unspecified)	4.5	
O=C1Nc2cc(Br)ccc2/C1=C1/Nc2cc(Br)ccc2/C1=N\OCC1CO1 (stereo unspecified)	> 100	
O=C1Nc2ccc(I)cc2/C1=C1/Nc2ccccc2/C1=N\O	57	
O=C1Nc2ccccc2/C1=C1/Nc2ccccc2/C1=N\OCC1CO1 (stereo unspecified)		viability at 3 µM [7]: 1.8%; viability at 1 µM [12]: 85%; Drug metabolism [23]: 1.8 nmol; Drug metabolism [24]: 2.24 nmol; Km at 5 min [17]: 1.51 µM; Drug metabolism [25]: 7.34 nmol; remaining at 0.5 h [26]: 96 to 103%; viability at 3 µM [19]: 33%; viability at 1 µM [21]: 66%
O=C1Nc2ccccc2/C1=C1/Nc2ccc(Br)cc2/C1=N\O	11	
O=C1Nc2ccc(I)cc2/C1=C1/Nc2ccccc2C1=O	> 100	
O=C1Nc2c(Br)cccc2/C1=C1/Nc2cc(Br)ccc2/C1=N\OCC1CO1 (stereo unspecified)	> 100	
O=C1Nc2c(Br)cccc2/C1=C1/Nc2ccccc2C1=O	> 100	
O=C1Nc2cc(Br)ccc2/C1=C1/Nc2cc(Br)ccc2C1=O	> 100	
O=C1Nc2cc(Br)ccc2/C1=C1/Nc2cc(Br)ccc2/C1=N\O	16	
O=C1Nc2c(Br)cc(Br)cc2/C1=C1/Nc2ccccc2/C1=N\O	6.6	
O=C1Nc2cc(Br)c(Br)cc2/C1=C1/Nc2ccccc2/C1=N\O	4.4	
O=C1Nc2ccc(Cl)cc2/C1=C1/Nc2ccccc2/C1=N\OCC1CO1 (stereo unspecified)	1.3	
O=C1Nc2ccccc2/C1=C1/Nc2ccccc2C1=O [INDIRUBIN]	> 100	
COc1ccc2c(c1)NC(=O)/C2=C1\Nc2ccccc2\C1=N/O	21	
O=C1Nc2ccc(Br)cc2/C1=C1/Nc2ccc(Br)cc2/C1=N\O	7	
O=C1Nc2c(Br)cccc2/C1=C1/Nc2ccccc2/C1=N\OCC1CO1 (stereo unspecified)	37	Activity [1]: inactive
O=C1Nc2ccc(Br)cc2/C1=C1/Nc2ccc(Br)cc2/C1=N\OCC1CO1 (stereo unspecified)	2.5	
O=C1Nc2ccc(F)cc2/C1=C1/Nc2ccccc2/C1=N\O	10	
O=C1Nc2c(Br)cccc2/C1=C1/Nc2ccc(Br)cc2C1=O	> 100	

Compound	IC50 [2] [µM]	also measured
COc1cccc2c1NC(=O)/C2=C1\Nc2ccccc2C1=O	> 100	
O=C1Nc2c(Br)cccc2/C1=C1/Nc2ccc(Br)cc2/C1=N\O	4.9	
COc1ccc2c(c1)/C(=C1/Nc3ccccc3/C1=N\O)C(=O)N2	6.2	
O=C1Nc2cc(Br)ccc2/C1=C1/Nc2ccccc2C1=O	> 100	
O=C1Nc2c(Br)cc(Br)cc2/C1=C1/Nc2ccccc2/C1=N\OCC1CO1 (stereo unspecified)	8.8	Activity [1]: inactive
O=C1Nc2ccccc2/C1=C1/Nc2ccc(Br)cc2C1=O	> 100	
O=C1Nc2ccc(Br)cc2/C1=C1/Nc2ccc(Br)cc2C1=O	> 100	
COc1ccc2c(c1)NC(=O)/C2=C1\Nc2ccccc2C1=O	> 100	
COc1ccc2c(c1)NC(=O)/C2=C1\Nc2ccccc2\C1=N/OCC1CO1 (stereo unspecified)	61	
COc1cccc2c1NC(=O)/C2=C1\Nc2ccccc2\C1=N/OCC1CO1 (stereo unspecified)	10	
O=C1Nc2c(Br)cccc2/C1=C1/Nc2cc(Br)ccc2/C1=N\O	17	
O=C1Nc2ccc(Br)cc2/C1=C1/Nc2cc(Br)ccc2C1=O	> 100	
O=C1Nc2ccc(F)cc2/C1=C1/Nc2ccccc2/C1=N\OCC1CO1 (stereo unspecified)	1.7	
COc1ccc2c(c1)/C(=C1/Nc3ccccc3C1=O)C(=O)N2	> 100	
O=C1Nc2cc(Br)c(Br)cc2/C1=C1/Nc2ccccc2/C1=N\OCC1CO1 (stereo unspecified)	1.9	viability at 3 µM [7]: 6.5%; viability at 1 µM [12]: 96%; viability at 3 µM [19]: 48%; viability at 1 µM [21]: 78%
O=C1Nc2ccccc2/C1=C1/Nc2ccccc2/C1=N\OCCC1CO1 (stereo unspecified)	7.8	
O=C1Nc2ccc(I)cc2/C1=C1/Nc2ccccc2/C1=N\OCC1CO1 (stereo unspecified)	3	
O=C1Nc2ccccc2/C1=C1/Nc2ccccc2/C1=N\OCCCC1CO1 (stereo unspecified)	16	
O=C1Nc2ccc(F)cc2/C1=C1/Nc2ccccc2C1=O	> 100	
COc1cccc2c1NC(=O)/C2=C1\Nc2ccccc2\C1=N/O	5.9	
